Reference: patent publication US9758477B2, “Sulfamoylbenzamide derivatives as antiviral agents against HBV infection” (priority 2011, dated 2017)

Columns and labels:
HBV mRNA = assay: Analysis of HBV mRNA by Northern blot in AML12HBV10 cells; assay type: cell-based, Hepatitis B virus (HBV); conditions: 2 days, FIG. 3 panel A
Experimental: To obtain mechanistic insight of the compounds of present invention against HBV, AML12HBV10 cells cultured in the 12-well plates were treated with a series of concentrations of DVR-1, DVR-56 or DVR-23 for two days in the absence of tetracycline (Guo et al., 2007). As positive controls, the cells were also treated with Bay41-4109 (5 μM) or AT-61 (25 μM), the known HBV nucleocapsid assembly effectors that either bind to HBV core protein dimmer to misdirect its interaction and prevent capsid formation (Bay41-4109) (Deres et al., 2003: Stray and Zlotnick, 2006), or interact with a core assembly intermediate and promote the formation of empty capsids (AT-61) (Feld et al., 2007; Katen et al., King et al., 1998). The amounts of intracellular viral mRNA, encapsidated pgRNA, capsids and nucleocapsid-associated HBV DNA were analyzed with the methods detailed below.
Procedure for analysis of HBV mRNA: Upon the completion of treatment, total cellular RNA was extracted with TRIzol reagents (Invitrogen). Five micrograms of total RNA was resolved in 1.5% agarose gel containing 2.2 M formaldehyde and transferred onto Hybond-XL membrane in 20×SSC buffer. The amounts of HBV mRNA were determined by Northern blot hybridization with an alpha-^32P-UTP labeled riboprobe specific for plus strand of HBV genome.

HBV = assay: Antiviral activity in HepDES19 cells, core-associated HBV DNA by Southern blot hybridization; assay type: cell-based; conditions: Hepatitis B virus, 144 h, Table 10, HepDES19 cells, 6 days, unit inferred; for EC90: HBV DNA reduced by 90%; for EC50: Southern blot
Experimental: FIG. 2 and Table 10, in human hepatoma-derived cell lines: To further confirm the antiviral activity of the compounds of the disclosure against HBV in human hepatocyte-derived cells, HepDES19 cells, a human hepatoma cell line supporting HBV replication in a tetracycline inducible manner (Guo et al., 2007), seeded into 12-well plates at a density of 5×10^5 cells per well and cultured in DMEM/F12 media with 10% fetal bovine serum and 1 μg/ml tetracycline. Two days after seeding, the cells were mock-treated or treated with a serial dilution of compounds of the disclosure, ranging from 10 μM to 0.018 μM, for 6 days in the absence of tetracycline. Upon the completion of treatment, cells were lysed by adding into each well of the 12-well plates 0.5 ml of lysis buffer containing 10 mM Tris-HCl (pH 8.0), 1 mM EDTA, 1% NP40 and 2% sucrose and incubating at 37° C. for 10 minutes. Cell debris and nuclei were removed by centrifugation and the supernatant was mixed with 130 μl of 35% polyethylene glycol (PEG) 8000 containing 1.5 M NaCl. After 1 hour incubation in ice, viral nucleocapsids were pelleted by centrifugation at 6,000×g for 5 min at 4° C., followed by 1 hour digestion at 37° C. in 400 μl of digestion buffer containing 0.5 mg/ml pronase (Calbiochem), 0.5% SDS, 150 mM NaCl, 25 mM Tris-HCl (pH 8.0) and 10 mM EDTA. The digestion mixture was extracted twice with phenol and DNA was precipitated with ethanol, dissolved in TE buffer (10 mM Tris-HCl, pH 8.0; 0.1 mM EDTA). One half of the DNA sample from each well was resolved by electrophoresis into a 1.5% agarose gel. The gel was then subjected to denaturation in a solution containing 0.5 M NaOH and 1.5 M NaCl, followed by neutralization in a buffer containing 1 M Tris-HCl (pH7.4) and 1.5 M NaCl. DNA was then blotted onto Hybond-XL membrane (GE Health care) in 20×SSC buffer. The amounts of cytoplasmic HBV core-associated HBV DNA were determined by Southern blot hybridization and the antiviral efficacy of a compound was expressed as its concentration that reduce the amount of HBV DNA by 50% (EC50) or 90% (EC90).

Row | SMILES | amount of viral mRNA (HBV mRNA) | EC90 (HBV) [nM] | EC50 (HBV) [nM]
1 | CCC(C)NS(=O)(=O)c1ccc(F)c(C(=O)Nc2ccc(F)c(F)c2)c1 (stereo not drawn) [DVR-23, 5-sec-butylsulfamoyl-N-(3,4-difluoro-phenyl)-2-fluoro-benzamide] | did not affect | 860 | 280
2 | O=C(Nc1ccc(F)c(F)c1)c1cc(S(=O)(=O)NC2CCCC2)ccc1F [DVR-56, 5-cyclopentylsulfamoyl-N-(3,4-difluoro-phenyl)-2-fluoro-benzamide] | did not affect | 1850 | 420
